Results: patent publication US20110014644A1, “METHODS FOR PREDICTING A CANCER PATIENT'S RESPONSE TO ANTIFOLATE CHEMOTHERAPY” (Precision Therapeutics, Inc., priority 2009, published 2011)

How the values were obtained:
A549 cells = assay: ChemoFx live cell chemoresponse assay on A549 (wash-before-treatment, folic acid supplementation); type: cell-based, human
Experimental: The ChemoFx™ live cell chemoresponse assay was performed on 65 patient specimens and the cell line A549. The cells were treated with a 10-dose range of pemetrexed for 72 hours before DAPI-nuclear staining and counting. AUC (Area Under Curve) values were calculated and additional statistical analysis was performed on the resulting dose-response curves. Folic Acid supplementation experiments were conducted. Pure folic acid was purchased from Sigma Aldrich, filtered, and prepared in a 100× concentration using RPMI media. The concentrate was added to RPMI media so that the final concentration of folic acid ranged between 1.5 mg/L and 500 mg/L. The cell line A549 was plated and treated according to the ChemoFx™ assay in the RPMI media containing increasing concentrations of folic acid. A control was also plated and treated at the same time. In order to determine whether or not removal of excess folic acid from growth media affected the outcome of the chemoresponse assay, a Wash Before Treatment (WBT) step was included. Briefly, A549 cells were plated in 5% BEGM growth media and were cultured to the desired confluence. The growth media was then aspirated and the cells washed with 70 μL of PBS. After removal of the PBS, 70 μL of 5% RPMI+EGF (EGF concentration of 10 ng/mL) treatment media was added to the each treatment well. Following the addition of the treatment media, 30 μL of the treatment media was removed leaving a total volume of 40 μL of treatment media per well. Pemetrexed was then prepared using serial dilutions in the treatment media and was applied to the treatment wells. All aspirations and additions of media and wash solutions was performed by an automated liquid handler to avoid harsh pipetting that might dissociate/disrupt cells.

[1] = tested on: non-small cell lung carcinoma (NSCLC); details: second-line treatment in the clinical setting, NSCLC patients (Hanna 2004); cited from earlier work
[2] = tested on: primary cultures of NSCLC specimens; assay: ChemoFx live cell chemoresponse assay on primary cultures of patient lung cancer specimens; type: cell-based, human; details: 65 primary cultures, single agent, 72 hours
Experimental: The ChemoFx™ live cell chemoresponse assay was performed on 65 patient specimens and the cell line A549. The cells were treated with a 10-dose range of pemetrexed for 72 hours before DAPI-nuclear staining and counting. AUC (Area Under Curve) values were calculated and additional statistical analysis was performed on the resulting dose-response curves.
The area under the dose-response curve (AUC) represents the survival fraction of cells in the presence of drug at each of the 10 increasing dose concentrations. There can be certain circumstances when dose-response curves of differing shapes share similar AUCs. Therefore, as a better reflection of sensitivity to drug treatment, an adjusted area under the curve (aAUC) was calculated according to the following formulas. First, local slope (Sd) at each dose point was calculated based on Sd=(CId-1−CId)/unit of dose. Second, slope weight (Wd) at each dose point was calculated based on Wd=1−Sd. Finally, aAUC was computed based on aAUC=Σ Wd CId, where d=1 . . . 10. Mi Z, et al. (2008) Anticancer Res 28: 1733-1740.
Adjusted areas under the curve (aAUC) were calculated for each dose-response curve. The assay results were classified as responsive (R; assay score≦5.34648.0), intermediate responsive (IR; assay score 5.3465-6.5372) or non-responsive (NR; assay score≧6.5373).

With `Nc1nc2[nH]cc(CCc3ccc(C(=O)N[C@@H](CCC(=O)O)C(=O)O)cc3)c2c(=O)[nH]1` [pemetrexed, Pemetrexed] the “effect of folic acid on observed activity” value (A549 cells; A549, RPMI media with folic acid 1.5 mg/L to 500 mg/L, FIG. 3) was “could be reversed with folic acid treatment”, the “effect of wash-before-treatment (WBT) protocol on in vitro response” value (A549 cells; A549, with WBT, 5% BEGM to 5% RPMI+EGF, FIG. 1) was “significantly improved the in vitro response” and the “response curve without WBT” value (A549 cells; A549, without WBT (5% BEGM control)) was “a typical ChemoFx™ response curve was not obtained”. The “sensitivity of A549 to treatment” value (A549 cells; A549 cultured in 5% BEGM, treated in 5% RPMI+EGF, FIG. 1) was “good positive control for sensitivity”, the “objective response rate (overall population response)” value [1] was 9.1% and the “share of primary cultures with intermediate response (IR)” value ([2]; 2.24 nM to 586 μM, aAUC assay score 5.3465-6.5372) was 9.2%. For the same molecule, the “share of primary cultures non-responsive (NR)” value ([2]; 2.24 nM to 586 μM, aAUC assay score ≧6.5373) was 84.6% and the “share of primary cultures that responded (responsive, R)” value ([2]; ten serial dilutions 2.24 nM to 586 μM, aAUC assay score ≦5.34648.0) was 6.2%.
